Where a SMILES comes first, the peptide text is derived from it. [ ]: non-standard residue; d: D form. Aoe = N[C@@H](CCCCCC(=O)[C@@H]1CO1)C(=O)O
Test: Treatment of diabetes mellitus with other HDAC regulators instead of givinostat (Example 7)
Assay type: in vivo
Conditions: used instead of givinostat; model and dose not stated

Structure (SMILES)	diabetes mellitus outcome
O=C(O)CCCc1ccccc1 [4-phenylbutyric acid]	similarly cured
O=C(CCCCCCSc1ccc2ccccc2c1)NO [(N-hydroxy-7-2-naphthylthio)heptanomide]	similarly cured
CCCC(=O)OCOC(=O)C(C)(C)C [(pivaloyloxy)methyl butyrate]	similarly cured
CN(C)CCCNC(=O)/C(=C/CCCCC(=O)NO)COc1cccc2ccccc12 [CG200745]	similarly cured
O=C(CCC1=CCCN(CCCc2ccccc2)C1=O)NO [KBH-A42]	similarly cured
CN(C)c1ccc(C(=O)NCc2ccc(/C=C/C(=O)NO)cc2)cc1 [SK-7041]	similarly cured
O=C(CCCCCCC(=O)Nc1ccc([C@H]2O[C@@H](CSc3nc(-c4ccccc4)c(-c4ccccc4)o3)C[C@@H](c3ccc(CO)cc3)O2)cc1)NO [Tubacin]	similarly cured
CN(C)Cc1c(C(=O)NCCOc2ccc(C(=O)NO)cc2)oc2ccccc12 [abexinostat]	similarly cured
O=C(CCCCCCCC(=O)NO)NO [azelaoyl-bis-hydroxamic acid]	similarly cured
O=C(/C=C/c1cccc(S(=O)(=O)Nc2ccccc2)c1)NO [belinostat]	similarly cured
O=C(/C=C/c1ccc(CN(CCO)CCc2c[nH]c3ccccc23)cc1)NO [dacinostat]	similarly cured
C=CCSSSCC=C [diallyl trisulfide]	similarly cured
Nc1ccccc1NC(=O)c1ccc(CNC(=O)OCc2cccnc2)cc1 [entinostat]	similarly cured
O=C(C=Cc1cccc(C(=O)NO)c1)NO [m-carboxycinnamic acid bis-hydroxamide]	similarly cured
Nc1ccccc1NC(=O)c1ccc(CNc2nccc(-c3cccnc3)n2)cc1 [mocetinostat]	similarly cured
O=C(NO)c1cnc(N2C[C@@H]3[C@H](C2)[C@H]3NCc2ccc3cc(F)ccc3n2)nc1 [nanatinostat]	similarly cured
CCCCc1nc2cc(/C=C/C(=O)NO)ccc2n1CCN(CC)CC [pracinostat]	similarly cured
Cn1cc(CNCC2CCN(c3ncc(C(=O)NO)cn3)CC2)c2ccccc21 [quisinostat]	similarly cured
CN(C)Cc1ccc(S(=O)(=O)n2ccc(/C=C/C(=O)NO)c2)cc1 [resminostat]	similarly cured
O=C(CCCCCCNC(=O)c1cnc(N(c2ccccc2)c2ccccc2)nc1)NO [rocilinostat]	similarly cured
O=C(CCCCCN1C(=O)c2cccc3cccc(c23)C1=O)NO [scriptaid]	similarly cured
CCCC(=O)[O-].[Na+] [sodium butyrate]	similarly cured
CC(=O)Nc1ccc(C(=O)Nc2ccccc2N)cc1 [tacedinaline]	similarly cured
O=C1N[C@@H](Cc2ccccc2)C(=O)N2CCC[C@@H]2C(=O)N[C@@H](CCCCCC(=O)[C@@H]2CO2)C(=O)N[C@H]1Cc1ccccc1 [trapoxin] (cyclo(FF[dP][Aoe]))	similarly cured
CC(/C=C/C(=O)NO)=C\[C@@H](C)C(=O)c1ccc(N(C)C)cc1 [trichostatin A]	similarly cured
O=C(CCCCCCC(=O)Nc1ccccc1)NO [vorinostat, suberoylanilide hydroxamic acid]	similarly cured

From EP4424327A1, “METHOD OR AGENT WITH HDAC REGULATOR, FOR TREATMENT OF DIABETES AND COMPLICATIONS” (Biozipcode, Inc., priority 2021, dated 2023)
